Test results taken from PMC6426682 (ACS chemical neuroscience, 2018).

Experiments:
CB1 receptor [1] = target: T1, CB1 receptor (Mus musculus, UniProt P47746); assay: [3H]CP55,940 equilibrium radioligand binding; settings: for [3H]CP55,940 Curve-fit top ± S.E.: mouse cerebellar membranes
CB1 receptor [2] = target: T1, CB1 receptor; assay: [3H]SR141716 equilibrium radioligand binding; settings: for remaining activity at 32 µM: 1.5 h, read-out: %[3H]SR141716 Binding ± S.E.; for effect on [3H]SR141716 binding (in words): 1 nM [3H]SR141716
CB1 receptor [3] = target: T1, CB1 receptor; assay: [3H]CP55,940 saturation binding in presence of allosteric modulator; settings: Bmax of the radioligand at 10 μM of test compound; vehicle 1.56 ± 0.09
CB1 receptor [4] = target: T1, CB1 receptor; assay: Agonist-stimulated [35S]GTP-γ-S binding assay in mouse cerebellar membranes; format: biochemical
[5] = cited from earlier work
[6] = in vivo; cited from earlier work
rats = settings: cited from earlier work
human CB1 receptor = human CB1 receptor (Homo sapiens, UniProt P21554); assay: CB1 calcium mobilization assay; format: cell-based; settings: for IC50: CB1 Calcium assay IC50, against EC80 (100 nM) of CP55,940 in stable human CB1-CHO-RD-HGA16 cells, mean ± SEM; for fold reduction in potency compared to 1, CB1 calcium assay: relative to 1
Chain of human CB1 receptor (P21554 whole entry): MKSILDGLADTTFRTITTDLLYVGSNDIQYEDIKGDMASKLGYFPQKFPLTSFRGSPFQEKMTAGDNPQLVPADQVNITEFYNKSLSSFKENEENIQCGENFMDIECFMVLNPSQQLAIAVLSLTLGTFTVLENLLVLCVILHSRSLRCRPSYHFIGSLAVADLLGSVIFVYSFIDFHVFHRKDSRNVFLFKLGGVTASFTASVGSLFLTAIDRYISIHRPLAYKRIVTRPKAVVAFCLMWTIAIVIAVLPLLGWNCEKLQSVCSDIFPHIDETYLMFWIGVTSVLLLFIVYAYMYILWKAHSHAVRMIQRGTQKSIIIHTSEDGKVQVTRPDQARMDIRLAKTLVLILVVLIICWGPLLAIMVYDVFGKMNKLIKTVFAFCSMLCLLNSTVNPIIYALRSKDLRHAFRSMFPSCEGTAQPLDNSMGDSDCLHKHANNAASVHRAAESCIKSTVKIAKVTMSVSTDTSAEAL

[7] = target: uncoupled low affinity receptor (CB1); settings: read-out: Ki for the uncoupled low affinity receptor; cited from earlier work

T1 sequence (P47746 whole entry): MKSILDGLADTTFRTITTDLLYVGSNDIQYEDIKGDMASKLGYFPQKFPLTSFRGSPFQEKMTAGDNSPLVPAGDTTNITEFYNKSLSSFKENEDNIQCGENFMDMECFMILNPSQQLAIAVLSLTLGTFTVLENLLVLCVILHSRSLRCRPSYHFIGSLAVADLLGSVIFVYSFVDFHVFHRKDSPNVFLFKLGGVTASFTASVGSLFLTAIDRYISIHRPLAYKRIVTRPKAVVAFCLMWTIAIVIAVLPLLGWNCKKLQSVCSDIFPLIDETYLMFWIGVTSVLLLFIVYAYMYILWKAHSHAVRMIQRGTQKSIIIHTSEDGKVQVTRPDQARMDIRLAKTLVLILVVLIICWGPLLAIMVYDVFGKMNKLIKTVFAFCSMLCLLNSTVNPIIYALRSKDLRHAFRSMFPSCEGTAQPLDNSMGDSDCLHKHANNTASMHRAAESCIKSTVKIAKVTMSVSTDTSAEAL

O=C(Nc1ccc(Cl)cc1)Nc1cccc(-c2ccsc2)c1 [Compound 9, 3‐(4‐Chlorophenyl)‐1‐[3‐(thiophen‐3‐yl)phenyl]urea]
EC50 (CB1 receptor [1]): 4.57 µM
[3H]CP55,940 Curve-fit top ± S.E. (CB1 receptor [1]; 1 nM [3H]CP55,940): 264.6 ± 9.81
IC50 (CB1 receptor [2]): 11.2 µM
remaining activity at 32 µM (CB1 receptor [2]): 20.4 ± 2.13%

O=C(Nc1ccc(Cl)cc1)Nc1cccc(-c2nccs2)c1 [Compound 18, 3‐(4‐Chlorophenyl)‐1‐[3‐(1,3‐thiazol‐2‐yl)phenyl]urea]
EC50 (CB1 receptor [1]): 5.13 µM
[3H]CP55,940 Curve-fit top ± S.E. (CB1 receptor [1]; 1 nM [3H]CP55,940): 134.2 ± 4.47
IC50 (CB1 receptor [2]): 16.6 µM
remaining activity at 32 µM (CB1 receptor [2]): 37.7 ± 0.76%

Cc1cc(-c2cccc(NC(=O)Nc3ccc(Cl)cc3)c2)cs1 [Compound 11, 3‐(4‐Chlorophenyl)‐1‐[3‐(5‐methylthiophen‐3‐yl)phenyl]urea]
EC50 (CB1 receptor [1]): 3.89 µM
[3H]CP55,940 Curve-fit top ± S.E. (CB1 receptor [1]; 1 nM [3H]CP55,940): 226.0 ± 5.82
IC50 (CB1 receptor [2]): 83.2 µM
effect on [3H]SR141716 binding (in words) (CB1 receptor [2]): only exhibited a slight reduction in [^3H]SR141716 binding
remaining activity at 32 µM (CB1 receptor [2]): 73.2 ± 5.77%
[3H]CP55,940 Bmax ± S.E. (CB1 receptor [3]): 3.64 ± 0.17 pmol/mg
fold reduction in inhibitory potency on introduction of a methyl group, GTP-γ-S assay (CB1 receptor [4]; relative to the 3-thiophenyl analogue (9)): 5 fold

O=C(Nc1ccc(Cl)cc1)Nc1cccc(-c2cccc(N3CCCC3)n2)c1 [Compound 1, 1-(4-Chlorophenyl)-3-{3-[6-(pyrrolidin-1-yl)pyridin-2-yl]phenyl}urea, reference compound]
tetrahydrocannabinol-induced anti-nociception [5]: attenuated tetrahydrocannabinol-induced anti-nociception
EC50 (CB1 receptor [1]): 2.04 µM
[3H]CP55,940 maximum binding level (CB1 receptor [1]; 1 nM [3H]CP55,940): 256%
Emax (CB1 receptor [1]; 1.5 h, read-out: [3H]CP55,940 Curve-fit top ± S.E.): 256 ± 5.59%
food intake and body weight [6]: demonstrated efficacy in reducing food intake and body weight
IC50 (CB1 receptor [2]): 12.3 µM
remaining activity at 32 µM (CB1 receptor [2]): 20.4 ± 3.05%
[3H]CP55,940 Bmax ± S.E. (CB1 receptor [3]): 4.53 ± 0.29 pmol/mg
prime-induced reinstatement of extinguished cocaine-seeking behavior (rats): attenuated prime-induced reinstatement of extinguished cocaine-seeking behavior in rats

O=C(Nc1ccc(Cl)cc1)Nc1cccc(-c2cncs2)c1 [Compound 17, 3‐(4‐Chlorophenyl)‐1‐[3‐(1,3‐thiazol‐5‐yl)phenyl]urea]
EC50 (CB1 receptor [1]): 6.46 µM
[3H]CP55,940 Curve-fit top ± S.E. (CB1 receptor [1]; 1 nM [3H]CP55,940): 181.2 ± 8.15
IC50 (CB1 receptor [2]): 2.95 µM
remaining activity at 32 µM (CB1 receptor [2]): 50.6 ± 2.04%
[3H]CP55,940 Bmax ± S.E. (CB1 receptor [3]): 3.57 ± 0.25 pmol/mg

Cc1ccc(-c2cccc(NC(=O)Nc3ccc(Cl)cc3)c2)s1 [Compound 12, 3‐(4‐Chlorophenyl)‐1‐[3‐(5‐methylthiophen‐2‐yl)phenyl]urea]
EC50 (CB1 receptor [1]): 13.2 µM
[3H]CP55,940 Curve-fit top ± S.E. (CB1 receptor [1]; 1 nM [3H]CP55,940): 233.3 ± 20.53
IC50 (CB1 receptor [2]): 22.9 µM
effect on [3H]SR141716 binding (in words) (CB1 receptor [2]): only exhibited a slight reduction in [^3H]SR141716 binding
remaining activity at 32 µM (CB1 receptor [2]): 86.9 ± 5.87%

O=C(Nc1ccc(Cl)cc1)Nc1cccc(-c2cscn2)c1 [Compound 16, 3‐(4‐Chlorophenyl)‐1‐[3‐(1,3‐thiazol‐4‐yl)phenyl]urea]
EC50 (CB1 receptor [1]): 10.7 µM
[3H]CP55,940 Curve-fit top ± S.E. (CB1 receptor [1]; 1 nM [3H]CP55,940): 224.2 ± 15.85
IC50 (CB1 receptor [2]): 25.7 µM
remaining activity at 32 µM (CB1 receptor [2]): 44.3 ± 1.42%

O=C(Nc1ccc(Cl)cc1)Nc1cccc(-c2ccoc2)c1 [Compound 8, 3‐(4‐Chlorophenyl)‐1‐[3‐(furan‐3‐yl)phenyl]urea]
EC50 (CB1 receptor [1]): 7.41 µM
[3H]CP55,940 Curve-fit top ± S.E. (CB1 receptor [1]; 1 nM [3H]CP55,940): 174.1 ± 8.86
IC50 (CB1 receptor [2]): 17.4 µM
remaining activity at 32 µM (CB1 receptor [2]): 34.9 ± 2.43%
[3H]CP55,940 Bmax ± S.E. (CB1 receptor [3]): 3.22 ± 0.19 pmol/mg
fold less potent than 1 in the GTP-γ-S assay (CB1 receptor [4]; relative to 1): ~ 4 fold

CC(C)(C)OC(=O)n1cccc1-c1cccc(NC(=O)Nc2ccc(Cl)cc2)c1 [Compound 15]
EC50 (CB1 receptor [1]): 14.8 µM
effect on [3H]CP55,940 binding (in words) (CB1 receptor [1]; 1 nM [3H]CP55,940): significantly decreased the binding of the radioligand
[3H]CP55,940 Curve-fit top ± S.E. (CB1 receptor [1]; 1 nM [3H]CP55,940): 15.5 ± 24.12
IC50 (CB1 receptor [2]): 8.51 µM
remaining activity at 32 µM (CB1 receptor [2]): 17.2 ± 4.12%
IC50 (CB1 receptor [4]): 3.24 µM
IC50 (human CB1 receptor): 3.44 ± 0.451 µM

O=C(Nc1ccc(Cl)cc1)Nc1cccc(-c2ccc[nH]2)c1 [Compound 13, 3‐(4‐Chlorophenyl)‐1‐[3‐(1H‐pyrrol‐2‐yl)phenyl]urea]
EC50 (CB1 receptor [1]): 1.38 µM
[3H]CP55,940 maximum binding level (CB1 receptor [1]; 1 nM [3H]CP55,940): 458%
[3H]CP55,940 Curve-fit top ± S.E. (CB1 receptor [1]; 1 nM [3H]CP55,940): 458.3 ± 16.25
fold increase of [3H]CP55,940 binding level compared to 1 (CB1 receptor [1]; relative to 1): more than 2 fold
IC50 (CB1 receptor [2]): 14.1 µM
remaining activity at 32 µM (CB1 receptor [2]): 26.6 ± 5.68%
[3H]CP55,940 Bmax ± S.E. (CB1 receptor [3]): 5.87 ± 0.15 pmol/mg
IC50 (human CB1 receptor): 0.165 to 0.169 µM
fold reduction in potency compared to 1, CB1 calcium assay (human CB1 receptor): about 3 fold

CCCCCCC(C)(C)c1ccc([C@@H]2C[C@H](O)CC[C@H]2CCCO)c(O)c1 [CP55,940]
Ki [7]: ~0.1 µM

Cn1cccc1-c1cccc(NC(=O)Nc2ccc(Cl)cc2)c1 [Compound 14, 3‐(4‐Chlorophenyl)‐1‐[3‐(1‐methyl‐1H‐pyrrol‐2‐yl)phenyl]urea]
EC50 (CB1 receptor [1]): 5.62 µM
[3H]CP55,940 Curve-fit top ± S.E. (CB1 receptor [1]; 1 nM [3H]CP55,940): 164.5 ± 8.61
IC50 (CB1 receptor [2]): 17.8 µM
remaining activity at 32 µM (CB1 receptor [2]): 41.4 ± 3.26%
IC50 (human CB1 receptor): 0.165 to 0.169 µM
fold reduction in potency compared to 1, CB1 calcium assay (human CB1 receptor): about 3 fold

O=C(Nc1ccc(Cl)cc1)Nc1cccc(-c2cccs2)c1 [Compound 10, 3‐(4‐Chlorophenyl)‐1‐[3‐(thiophen‐2‐yl)phenyl]urea]
EC50 (CB1 receptor [1]): 5.75 µM
[3H]CP55,940 Curve-fit top ± S.E. (CB1 receptor [1]; 1 nM [3H]CP55,940): 199.8 ± 8.78
IC50 (CB1 receptor [2]): 28.8 µM
remaining activity at 32 µM (CB1 receptor [2]): 45.54 ± 0.15%

O=C(Nc1ccc(Cl)cc1)Nc1cccc(-c2ncc[nH]2)c1 [Compound 19, 3‐(4‐Chlorophenyl)‐1‐[3‐(1H‐imidazol‐2‐yl)phenyl]urea]
EC50 (CB1 receptor [1]): 10.2 µM
[3H]CP55,940 maximum binding level (CB1 receptor [1]; 1 nM [3H]CP55,940): 355%
[3H]CP55,940 Curve-fit top ± S.E. (CB1 receptor [1]; 1 nM [3H]CP55,940): 355.7 ± 27.39
IC50 (CB1 receptor [2]): 123 µM
remaining activity at 32 µM (CB1 receptor [2]): 34.8 ± 8.94%
fold reduction in potency compared to 1, CB1 calcium assay (human CB1 receptor): around 16 fold
